Values of other authors as cited in US20250082604A1, “COMPOSITIONS CONTAINING A HIGH CONTENT OF PROANTHOCYANIDINS AND METHODS OF PREPARATION AND USE THEREOF” (priority 2022, published 2025).

Tested on: human HepG2 cells
Conditions: literature data (dx.doi.org/10.3390/antiox9060471)

Structure (SMILES) | AOP1 EC50, data from the literature
Oc1ccc(C=Cc2cc(O)cc(O)c2)cc1 [resveratrol] | 64.66 µg/mL
COc1ccc(O)c(C(C)(C)C)c1 [BHA] | 31.54 µg/mL
Cc1c(C)c2c(c(C)c1O)CCC(C)(C(=O)O)O2 (stereo not shown) [Trolox] | 138.50 µg/mL
Cc1cc(C(C)(C)C)c(O)c(C(C)(C)C)c1 [BHT] | 34.25 µg/mL
